In PubChem BioAssay (NCI):
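Dose response: 5 concentrations. Exposure: 48 h. Format: 96-well plates. Endpoint: linear interpolation; highest concentration if not reached. Abbreviation: GI50, concentration required for 50% inhibition of growth. TGI marks complete inhibition of growth.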

Legend:
Experiment in all cases: NCI-60 cell line screen, 48 h
COLO 205 colon = test system: COLO 205 colon
SNB-19 CNS = test system: SNB-19 CNS
SR leukemia = test system: SR leukemia
MDA-MB-231 breast = test system: MDA-MB-231 breast
MALME-3M melanoma = test system: MALME-3M melanoma
T-47D breast = test system: T-47D breast
SN12C renal = test system: SN12C renal
NCI-H23 lung = test system: NCI-H23 lung
K-562 leukemia = test system: K-562 leukemia
HCC-2998 colon = test system: HCC-2998 colon
EKVX NSCLC = test system: EKVX NSCLC
786-0 renal = test system: 786-0 renal
RXF 393 renal = test system: RXF 393 renal
UO-31 renal = test system: UO-31 renal
OVCAR-5 ovarian = test system: OVCAR-5 ovarian
SF-539 CNS = test system: SF-539 CNS
KM12 colon = test system: KM12 colon
SNB-75 CNS = test system: SNB-75 CNS
A498 renal = test system: A498 renal
UACC-257 melanoma = test system: UACC-257 melanoma
SK-MEL-28 melanoma = test system: SK-MEL-28 melanoma
NCI-H460 lung = test system: NCI-H460 lung
OVCAR-4 ovarian = test system: OVCAR-4 ovarian
U251 CNS = test system: U251 CNS
SF-295 CNS = test system: SF-295 CNS
SF-268 CNS = test system: SF-268 CNS
NCI-H522 lung = test system: NCI-H522 lung
SW-620 colon = test system: SW-620 colon
OVCAR-8 ovarian = test system: OVCAR-8 ovarian

## C#Cc1nc(C2=C(C)C(O)/C(=N/O)C2)cs1 (stereo not drawn)
COLO 205 colon
  GI50: > 100 µM
  TGI: > 100 µM
SNB-19 CNS
  GI50: > 100 µM
  TGI: > 100 µM
SR leukemia
  GI50: 1.91 µM
  TGI: 5.31 µM
MDA-MB-231 breast
  GI50: 60.1 µM
  TGI: > 100 µM
MALME-3M melanoma
  GI50: 18.4 µM
  TGI: 49.6 µM
T-47D breast
  GI50: 66.8 µM
  TGI: > 100 µM
SN12C renal
  GI50: 35 µM
  TGI: > 100 µM
NCI-H23 lung
  GI50: 7.4 µM
  TGI: > 100 µM
K-562 leukemia
  GI50: 36.7 µM
  TGI: > 100 µM
HCC-2998 colon
  GI50: > 100 µM
  TGI: > 100 µM
EKVX NSCLC
  GI50: > 100 µM
  TGI: > 100 µM
786-0 renal
  GI50: 3.84 µM
  TGI: 14 µM
RXF 393 renal
  GI50: 19.4 µM
  TGI: 62.6 µM
UO-31 renal
  GI50: 1.61 µM
  TGI: 2.98 µM
OVCAR-5 ovarian
  GI50: 63.6 µM
  TGI: > 100 µM
SF-539 CNS
  GI50: 11.5 µM
  TGI: 23.6 µM
KM12 colon
  GI50: > 100 µM
  TGI: > 100 µM
SNB-75 CNS
  GI50: > 100 µM
  TGI: > 100 µM
A498 renal
  GI50: 24.1 µM
  TGI: 50.3 µM
UACC-257 melanoma
  GI50: 57.4 µM
  TGI: > 100 µM
SK-MEL-28 melanoma
  GI50: 87.8 µM
  TGI: > 100 µM
NCI-H460 lung
  GI50: > 100 µM
  TGI: > 100 µM
OVCAR-4 ovarian
  GI50: 57.2 µM
  TGI: > 100 µM
U251 CNS
  GI50: 79.5 µM
  TGI: > 100 µM
SF-295 CNS
  GI50: 12.5 µM
  TGI: 28.5 µM
SF-268 CNS
  GI50: 40.7 µM
  TGI: > 100 µM
NCI-H522 lung
  GI50: 14.1 µM
  TGI: 29.1 µM
SW-620 colon
  GI50: 79.3 µM
  TGI: > 100 µM
OVCAR-8 ovarian
  GI50: 55.5 µM
  TGI: > 100 µM
